Patent US9517996B2, “Purification of polycarboxylic acids” (Verdezyne, Inc., priority 2014, dated 2016)

Assay: physchem
Conditions: thermodynamic from solid
Method: Each polycarboxylic acid was added to the water or acetic acid solution while mixing and kept at the appropriate temperature until the solution became supersaturated as visually determined at least 20 minutes after addition of the polycarboxylic acid.

Q: With `O=C(O)CCCCCCCCCCC(=O)O` [DDDA, dodecanedioic acid] as the compound, how does the solubility (20 °C, organic solvent or mixture) read?
A: Its solubility is under 200 µg/mL.

Q: What about the solubility (23 °C, water) of the same compound?
A: The solubility was under 30 µg/mL.

Q: What about the solubility (70 °C, organic solvent or mixture) of the same compound?
A: The solubility was over 100000 µg/mL.

Q: And the solubility (70 °C, water)?
A: The solubility was under 120 µg/mL.

Q: What about the solubility (water) of the same compound?
A: The solubility was under 1000 µg/mL.
